Measurements from patent US8445636B2, “Antimicrobial and anticancer lipopeptides” (Yeda Research & Development Co. Ltd., priority 2003, dated 2013).
In brackets after ≈: the same amount, converted by molar mass. Like-named read-outs stand apart in the source and are kept apart here. Positions of bridges follow the written chain, without caps; N, C: chain ends. Non-standard residues stand in square brackets, D forms with d. Residues, ends and D or L forms follow the SMILES beside them. *: point of attachment. Myristoyl = CCCCCCCCCCCCCC(=O)*; Lauroyl = CCCCCCCCCCCC(=O)*

How the values were obtained:
[1] = Cytotoxicity, XTT viability, non-cancer cells; assay type: cell-based; conditions: mouse, non-cancer cell line, 24 h incubation, read-out: LC50, 3T3
Procedure: (§1) Prostate cancer cell lines (CL1 and 22RV1; ATCC, USA) were grown in RPMI-1640 supplemented with 10% FCS (Biological Industries, Beit Haemek, Israel). N1H-3T3 mouse fibroblast cell line (ATCC, USA) was grown in DMEM supplemented with 10% bovine serum. To test cytotoxicity against the cancer cells, aliquots of medium containing 1×10^4 cells were distributed into a 96-well plate (Falcon). After one day, the media were replaced with 90 μl of fresh media and 10 μl of a solution containing different concentrations of the peptides. The plate was then incubated for 24 h before adding to each well 50 μl of XTT reaction solution (Biological Industries, Beit Haemek, Israel); viability was determined as previously described (Papo et al., (2003) J. Biol. Chem. 278:21018-23). The LC50 (concentration at which 50% of the cells die) for each peptide was obtained from the dose-dependent cell viability curves.

[2] = tested on: Prostate cancer cell line 22RV1; assay: Cytotoxicity, XTT viability; assay type: cell-based, human; conditions: 24 h incubation, read-out: LC50, Prostate cancer 22RV1
Procedure: as §1

[3] = tested on: Prostate cancer cell line CL1; assay: Cytotoxicity, XTT viability; assay type: cell-based, human; conditions: 24 h incubation, read-out: LC50, Prostate cancer CL1
Procedure: as §1

[4] = Resistance to proteolytic digestion, intact lipopeptide by HPLC; assay type: in vitro ADME; conditions: human, elastase from human leukocytes; 140 μM lipopeptide, 25 μM protease, 30 min at 37° C., PBS pH 7.3
Procedure: (§2) Equal amounts of the lipopeptides were dissolved in PBS (35 mM phosphate buffer/0.15 M NaCl, pH 7.3) to yield a final concentration of 140 μM to which 25 μM of either pepsin (from porcine stomach mucosa, Sigma), trypsin (from bovine pancreas, Sigma), or elastase (from human leukocytes, Sigma) were added. The samples were incubated under agitation for 30 min at 37° C. After addition of the appropriate protease inhibitor to stop the reaction, aliquots of the proteolytic digest were injected to C18 HPLC column and the amounts of the intact lipopeptide were evaluated using their absorbance at 215 nm.

[5] = in vitro; assay type: in vitro ADME, porcine; conditions: pig, isolated enzyme pepsin, pH 7.3
Procedure: as §2

[6] = in vitro; assay type: in vitro ADME, bovine; conditions: isolated enzyme trypsin, pH 7.3
Procedure: as §2

[7] = tested on: Aspergillus fumigatus ATCC 26430; assay: microbe, parasite or virus in culture; assay type: cell-based
[8] = tested on: Candida albicans ATCC 10231; assay: microbe, parasite or virus in culture; assay type: cell-based
Outline: (§3)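 MIC = lowest concentration giving 100% growth inhibition by A620 after 24-48 h at 35 °C with agitation. Inoculum: 1×10^4 CFU/ml (pre-mix) in RPMI 1640/0.165 M MOPS; pH 7.4 by default, 5.5 where noted. Peptide as twofold dilution series in water.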

[9] = tested on: Cryptococcus neoformans ATCC 66031; assay: microbe, parasite or virus in culture; assay type: cell-based
Outline: as §3

[10] = tested on: E. coli D21; assay type: cell-based
[11] = tested on: Staphylococcus aureus ATCC 6538P; assay type: cell-based
Outline: (§4)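 Broth microdilution in LB medium at pH 7.4 (pH 5.5 where indicated), 1×10^6 CFU/ml suspension mixed 1:1 with 2-fold serial dilutions of lipopeptide in water. After 18-20 h at 37° C, growth read by absorbance at 600 nm; MIC is the concentration giving 100% growth inhibition.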

[12] = tested on: Acinetobacter baumannii ATCC 19606; assay type: cell-based
Outline: as §4

[13] = tested on: Escherichia coli ATCC 25922; assay type: cell-based
Outline: as §4

[14] = tested on: Pseudomonas aeruginosa ATCC 27853; assay type: cell-based
Outline: as §4

In the case of `CC(C)C[C@@H](N)C(=O)N[C@@H](CCCNC(=N)N)C(=O)N[C@@H](CCCNC(=N)N)C(=O)N[C@H](CC(C)C)C(=O)N[C@H](CC(C)C)C(=O)N[C@@H](CCCNC(=N)N)C(=O)N[C@@H](CCCNC(=N)N)C(=O)N[C@H](CC(C)C)C(=O)N[C@H](CC(C)C)C(=O)N[C@@H](CCCNC(=N)N)C(=O)N[C@@H](CCCNC(=N)N)C(=O)N[C@H](CC(C)C)C(N)=O` [DL6R6, LRRLLRRLLRRL, reference compound] (H-[dL]RR[dL][dL]RR[dL][dL]RR[dL]-NH2; N-terminus assumed), the CC50 at 24 h [1] is reported as over 100 µM, the CC50 [2] is reported as 50 µM and the CC50 [3] is reported as over 100 µM.
With `CCCCCCCCCCCCCC(=O)N[C@H]1CSSC[C@@H](C(N)=O)NC(=O)[C@@H](CCCCN)NC(=O)CNC(=O)CNC(=O)[C@@H](CCCCN)NC(=O)CNC(=O)CNC(=O)CNC(=O)[C@@H](CCCCN)NC(=O)CNC(=O)CNC(=O)CNC(=O)[C@@H](CCCCN)NC1=O` [lipopeptide 16] (Myristoyl-C[dK]GGG[dK]GGG[dK]GG[dK]C-NH2; disulfide 1-14) the metabolised at 0.5 h, 140 μM [4] was 0%, the metabolised at 0.5 h, 140 μM [5] was 0% and the metabolised at 0.5 h, 140 μM [6] was 0%.
`CCCCCCCCCCCCCC(=O)N[C@H]1CSSC[C@@H](C(N)=O)NC(=O)[C@H](CCCCN)NC(=O)CNC(=O)CNC(=O)[C@H](CCCCN)NC(=O)CNC(=O)CNC(=O)CNC(=O)[C@H](CCCCN)NC(=O)CNC(=O)CNC(=O)CNC(=O)[C@H](CCCCN)NC1=O` [lipopeptide 19] (Myristoyl-CKGGGKGGGKGGKC-NH2; disulfide 1-14) gave a metabolised at 0.5 h, 140 μM [4] of 100%, a metabolised at 0.5 h, 140 μM [5] of 100% and a metabolised at 0.5 h, 140 μM [6] of 100%.
In the case of `CCCCCCCCCCCC(=O)N[C@H](CC(C)C)C(=O)N[C@@H](CCCNC(=N)N)C(=O)N[C@@H](CCCNC(=N)N)C(=O)N[C@H](CC(C)C)C(=O)N[C@H](CC(C)C)C(=O)N[C@@H](CCCNC(=N)N)C(=O)N[C@@H](CCCNC(=N)N)C(=O)N[C@H](CC(C)C)C(=O)N[C@H](CC(C)C)C(=O)N[C@@H](CCCNC(=N)N)C(=O)N[C@@H](CCCNC(=N)N)C(=O)N[C@H](CC(C)C)C(N)=O` [lipopeptide 25, (CH3-(CH2)10-CO-)-D-Leu-Arg-Arg-D-Leu-D-Leu-Arg-Arg-D-Leu-D-Leu-Arg-Arg-D-Leu-NH2] (Lauroyl-[dL]RR[dL][dL]RR[dL][dL]RR[dL]-NH2), the MIC ([7]; ATCC 26430, pH 5.5, read-out: Minimal inhibitory concentrations, A. Fumig. With serum) is reported as 50 µM (≈ 90.8 µg/mL), the MIC ([7]; ATCC 26430, pH 5.5, read-out: Minimal inhibitory concentrations, A. Fumig. Without serum) is reported as 6.25 µM (≈ 11.3 µg/mL) and the MIC ([7]; ATCC 26430, pH 7.4, read-out: Minimal inhibitory concentrations, A. Fumig. With serum) is reported as 50 µM (≈ 90.8 µg/mL). It also gave an MIC ([7]; ATCC 26430, pH 7.4, read-out: Minimal inhibitory concentrations, A. Fumig. Without serum) of 3.125 µM (≈ 5.67 µg/mL), an MIC ([8]; ATCC 10231, pH 5.5, read-out: Minimal inhibitory concentrations, C. Albicans With serum) of 100 µM (≈ 182 µg/mL) and an MIC ([8]; ATCC 10231, pH 5.5, read-out: Minimal inhibitory concentrations, C. Albicans Without serum) of 12.5 µM (≈ 22.7 µg/mL). It also gave an MIC ([8]; ATCC 10231, pH 7.4, read-out: Minimal inhibitory concentrations, C. Albicans With serum) of 100 µM (≈ 182 µg/mL), an MIC ([8]; ATCC 10231, pH 7.4, read-out: Minimal inhibitory concentrations, C. Albicans Without serum) of 3.125 µM (≈ 5.67 µg/mL) and an MIC ([9]; ATCC 66031, pH 5.5, read-out: Minimal inhibitory concentrations, C. Neofor. With serum) of 2.34 µM (≈ 4.25 µg/mL). The MIC ([9]; ATCC 66031, pH 5.5, read-out: Minimal inhibitory concentrations, C. Neofor. Without serum) was under 0.78 µM, the MIC ([9]; ATCC 66031, pH 7.4, read-out: Minimal inhibitory concentrations, C. Neofor. With serum) was under 0.78 µM and the MIC ([9]; ATCC 66031, pH 7.4, read-out: Minimal inhibitory concentrations, C. Neofor. Without serum) was under 0.78 µM. For the same compound, the “Minimal inhibitory concentrations, E. Coli D21” value ([10]; D21, pH 5.5) was 50 µM (≈ 90.8 µg/mL), the “Minimal inhibitory concentrations, E. Coli D21” value ([10]; D21, pH 7.4) was 50 µM (≈ 90.8 µg/mL) and the “Minimal inhibitory concentrations, S. aureus II ATCC 6538P” value ([11]; ATCC 6538, pH 5.5) was 50 µM (≈ 90.8 µg/mL). For the same compound, the “Minimal inhibitory concentrations, S. aureus II ATCC 6538P” value ([11]; ATCC 6538, pH 7.4) was 12.5 µM (≈ 22.7 µg/mL), the “Minimal inhibitory concentrations, A. baumannii ATCC 19606” value ([12]; ATCC 19606, pH 5.5) was 75 µM (≈ 136 µg/mL) and the “Minimal inhibitory concentrations, A. baumannii ATCC 19606” value ([12]; ATCC 19606, pH 7.4) was over 100 µM. For the same compound, the “Minimal inhibitory concentrations, E. Coli ATCC 25922” value ([13]; ATCC 25922, pH 5.5) was 100 µM (≈ 182 µg/mL), the “Minimal inhibitory concentrations, E. Coli ATCC 25922” value ([13]; ATCC 25922, pH 7.4) was over 100 µM and the “Minimal inhibitory concentrations, P. Aeruginosa ATCC 27853” value ([14]; ATCC 27853, pH 5.5) was 50 µM (≈ 90.8 µg/mL). For the same compound, the “Minimal inhibitory concentrations, P. Aeruginosa ATCC 27853” value ([14]; ATCC 27853, pH 7.4) was 50 µM (≈ 90.8 µg/mL), the CC50 at 24 h [1] was 100 µM and the CC50 [2] was 3.12 µM. The CC50 [3] was 3.12 µM.
